# Tests used:
# S. mutans UA159 = assay: Bacterial killing assay (CFU counting), S. mutans UA159; assay type: cell-based, Streptococcus mutans; conditions: for bactericidal effect: 10 min
# Description: (§1) Minimal inhibition concentration (MIC) determination . S.mutans UA159 (ATCC 700610) and 20 clinical S.mutans strains were used. S.mutans UA159 was purchased from Shanghai Biofeng Biotechnology Co., LTD. These bacteria grown in brain heart infusion broth (BHI, Beijing Land Bridge, China) at 37 °C under anaerobic conditions. […]
# Bacterial killing by pHly-1 NPs at various pHs. pHly-1 NPs were diluted in BHI medium of different pHs (pH 4.5, 5.5, 6.8, and 7.0) to obtain specific diluted solutions (final volume of 200 μ L). 1 μ L bacterial suspension (2×10^8 CFU/mL) in the logarithmic phase was added into corresponding diluted solutions and mixed […]
# individually. […]
# aliquots of 20 μL bacterial suspension were plated on BHI agar plates. The bacterial killing activity of pHly -1 NPs was measured by counting the CFU of alive bacteria with agar plating after incubation under anaerobic conditions for 48 h at 37 °C. The results were determined and presented of three repeats. Bacterial survival(%) = CFU of bacteria treated with drugs/CFU of bacteria treated with negative control× 100% 2.
# The SYTO 9 / PI double staining and scanning electron microscopy (SEM) were also performed to evaluate the bacterial killing and bacterial membrane disruption.
# For SYTO 9/PI double staining, pHly -1 NPs was added to actively growing S. mutans UA159 (10^6 CFU/m L) at the concentration of 22 μM at pH 4.5 or pH 7.0, after 1 h incubation, the bacteria treated were imaged by using LIVE/DEAD BacLight Bacterial Viability Kit (Thermo Fisher Scientific). SYTO 9 and PI were added according to the manufacturer ’s protocol and used for labeling […]
# bacteria. […]
# (§2) For SEM, S. mutans UA159 was treated by the same way to SYTO 9/PI double staining asay and then harvested, washed, and then fixed in 2.5 % glutaraldehyde for 3 h. After dehydration by serial concentrations of ethanol solutions (10%, 25%, 50%, 75%, 95%, and 100%) and lyophiliz ation overnight, the lyophilized samples were coated with goldand then photographed by SEM.
# [1] = test system: clinically isolated S.mutans strains; assay: Bactericidal activity against clinically isolated S. mutans strains (CFU counting); assay type: cell-based, Streptococcus mutans; conditions: for bacterial viability (survival): 10 min, CFU
# Description: Table S3 The bactericidal activity of pHly -1 NPs and CHX against clinically isolated S.mutans strains a
# “a” represents the bacterial viability after the pHly-1 NPs and CHX treatment for 10 min. The killing activity of pHly -1 NPs and CHX was measured against clinically isolated S.mutans strains by counting the CFU of alive bacteria. […]
# as §1
# Bacterial killing by pHly-1 NPs at various pHs. pHly-1 NPs were diluted in BHI medium of different pHs (pH 4.5, 5.5, 6.8, and 7.0) to obtain specific diluted solutions (final volume of 200 μ L). 1 μ L bacterial suspension (2×10^8 CFU/mL) in the logarithmic phase was added into corresponding diluted solutions and mixed individually. After being incubated for 10 min at 37 °C under anaerobic conditions, aliquots of 20 μL bacterial suspension were plated on BHI agar plates. The bacterial killing activity of pHly -1 NPs was measured by counting the CFU of alive bacteria with agar plating after incubation under anaerobic conditions for 48 h at 37 °C. The results were determined and presented of three repeats. Bacterial survival(%) = CFU of bacteria treated with drugs/CFU of bacteria treated with negative control× 100% 2. […]
# as §2
structure (smiles),measurement,setting,value
"[H]/N=C(\N/C(=N/[H])NCCCCCCNC(=N)NC(=N)Nc1ccc(Cl)cc1)Nc1ccc(Cl)cc1 [CHX, chlorhexidine]",bactericidal effect,"S. mutans UA159; 22 μM, both acidic and neutral pH",no apparent bactericidal effect
same,bacterial survival,"S. mutans UA159; 22 μM, 120 min, kinetic assay",ca. 60%
same,bactericidal effect,"S. mutans UA159; 550 μM, both acidic and neutral conditions",kill bacteria completely
same,viability,"[1]; 55 μM, in 4 strains",over 90%
same,bacterial viability (survival),"[1]; strain CS-1, pH 4.5, 22 μM",95.2%
same,bacterial viability (survival),"[1]; strain CS-1, pH 4.5, 55 μM",54%
same,bacterial viability (survival),"[1]; strain CS-1, pH 5.5, 22 μM",91.6%
same,bacterial viability (survival),"[1]; strain CS-1, pH 5.5, 55 μM",31.3%
same,bacterial viability (survival),"[1]; strain CS-2, pH 4.5, 22 μM",96.4%
same,bacterial viability (survival),"[1]; strain CS-2, pH 4.5, 55 μM",69.1%
same,bacterial viability (survival),"[1]; strain CS-2, pH 5.5, 22 μM",86.9%
same,bacterial viability (survival),"[1]; strain CS-2, pH 5.5, 55 μM",76.6%
same,bacterial viability (survival),"[1]; strain CS-4, pH 4.5, 22 μM",100%
same,bacterial viability (survival),"[1]; strain CS-4, pH 4.5, 55 μM",66.4%
same,bacterial viability (survival),"[1]; strain CS-4, pH 5.5, 22 μM",100%
same,bacterial viability (survival),"[1]; strain CS-4, pH 5.5, 55 μM",74.6%
same,bacterial viability (survival),"[1]; strain CS-5, pH 4.5, 22 μM",100%
same,bacterial viability (survival),"[1]; strain CS-5, pH 4.5, 55 μM",67.7%
same,bacterial viability (survival),"[1]; strain CS-5, pH 5.5, 22 μM",89.6%
same,bacterial viability (survival),"[1]; strain CS-5, pH 5.5, 55 μM",54.9%
same,bacterial viability (survival),"[1]; strain CS-6, pH 4.5, 22 μM",106%
same,bacterial viability (survival),"[1]; strain CS-6, pH 4.5, 55 μM",67.0%
same,bacterial viability (survival),"[1]; strain CS-6, pH 5.5, 22 μM",95.6%
same,bacterial viability (survival),"[1]; strain CS-6, pH 5.5, 55 μM",88.8%
same,bacterial viability (survival),"[1]; strain CS-7, pH 4.5, 22 μM",97.0%
same,bacterial viability (survival),"[1]; strain CS-7, pH 4.5, 55 μM",54%
same,bacterial viability (survival),"[1]; strain CS-7, pH 5.5, 22 μM",91.6%
same,bacterial viability (survival),"[1]; strain CS-7, pH 5.5, 55 μM",67.7%
same,bacterial viability (survival),"[1]; strain CS-8, pH 4.5, 22 μM",79.5%
same,bacterial viability (survival),"[1]; strain CS-8, pH 4.5, 55 μM",49.4%
same,bacterial viability (survival),"[1]; strain CS-8, pH 5.5, 22 μM",81.8%
same,bacterial viability (survival),"[1]; strain CS-8, pH 5.5, 55 μM",61.8%
same,bacterial viability (survival),"[1]; strain CS-9, pH 4.5, 22 μM",83.9%
same,bacterial viability (survival),"[1]; strain CS-9, pH 4.5, 55 μM",77%
same,bacterial viability (survival),"[1]; strain CS-9, pH 5.5, 22 μM",73.8%
same,bacterial viability (survival),"[1]; strain CS-9, pH 5.5, 55 μM",46.9%
same,bacterial viability (survival),"[1]; strain CS-10, pH 4.5, 22 μM",83.6%
same,bacterial viability (survival),"[1]; strain CS-10, pH 4.5, 55 μM",52.3%
same,bacterial viability (survival),"[1]; strain CS-10, pH 5.5, 22 μM",68.9%
same,bacterial viability (survival),"[1]; strain CS-10, pH 5.5, 55 μM",68.2%
same,bacterial viability (survival),"[1]; strain CS-11, pH 4.5, 22 μM",100%
same,bacterial viability (survival),"[1]; strain CS-11, pH 4.5, 55 μM",50.7%
same,bacterial viability (survival),"[1]; strain CS-11, pH 5.5, 22 μM",140%
same,bacterial viability (survival),"[1]; strain CS-11, pH 5.5, 55 μM",59.4%
same,bacterial viability (survival),"[1]; strain CS-12, pH 4.5, 22 μM",98.6%
same,bacterial viability (survival),"[1]; strain CS-12, pH 4.5, 55 μM",91.1%
same,bacterial viability (survival),"[1]; strain CS-12, pH 5.5, 22 μM",110%
same,bacterial viability (survival),"[1]; strain CS-12, pH 5.5, 55 μM",74.2%
same,bacterial viability (survival),"[1]; strain CS-13, pH 4.5, 22 μM",93.5%
same,bacterial viability (survival),"[1]; strain CS-13, pH 4.5, 55 μM",87.4%
same,bacterial viability (survival),"[1]; strain CS-13, pH 5.5, 22 μM",74.0%
same,bacterial viability (survival),"[1]; strain CS-13, pH 5.5, 55 μM",65.8%
same,bacterial viability (survival),"[1]; strain CS-14, pH 4.5, 22 μM",100%
same,bacterial viability (survival),"[1]; strain CS-14, pH 4.5, 55 μM",51.9%
same,bacterial viability (survival),"[1]; strain CS-14, pH 5.5, 22 μM",74.2%
same,bacterial viability (survival),"[1]; strain CS-14, pH 5.5, 55 μM",71.6%
same,bacterial viability (survival),"[1]; strain CS-16, pH 4.5, 22 μM",95.9%
same,bacterial viability (survival),"[1]; strain CS-16, pH 4.5, 55 μM",10.9%
same,bacterial viability (survival),"[1]; strain CS-16, pH 5.5, 22 μM",87.9%
same,bacterial viability (survival),"[1]; strain CS-16, pH 5.5, 55 μM",20%
same,bacterial viability (survival),"[1]; strain CS-17, pH 4.5, 22 μM",108.2%
same,bacterial viability (survival),"[1]; strain CS-17, pH 4.5, 55 μM",92.3%
same,bacterial viability (survival),"[1]; strain CS-17, pH 5.5, 22 μM",102.0%
same,bacterial viability (survival),"[1]; strain CS-17, pH 5.5, 55 μM",48.3%
same,bacterial viability (survival),"[1]; strain CS-18, pH 4.5, 22 μM",68.2%
same,bacterial viability (survival),"[1]; strain CS-18, pH 4.5, 55 μM",71.5%
same,bacterial viability (survival),"[1]; strain CS-18, pH 5.5, 22 μM",114.8%
same,bacterial viability (survival),"[1]; strain CS-18, pH 5.5, 55 μM",92.2%
same,bacterial viability (survival),"[1]; strain CS-19, pH 4.5, 22 μM",93.0%
same,bacterial viability (survival),"[1]; strain CS-19, pH 4.5, 55 μM",101%
same,bacterial viability (survival),"[1]; strain CS-19, pH 5.5, 22 μM",96.9%
same,bacterial viability (survival),"[1]; strain CS-19, pH 5.5, 55 μM",87.9%
same,bacterial viability (survival),"[1]; strain CS-20, pH 4.5, 22 μM",91.0%
same,bacterial viability (survival),"[1]; strain CS-20, pH 4.5, 55 μM",100%
same,bacterial viability (survival),"[1]; strain CS-20, pH 5.5, 22 μM",103.9%
same,bacterial viability (survival),"[1]; strain CS-20, pH 5.5, 55 μM",88.9%

# Source: paper PMC9254247, “Dual-sensitive antibacterial peptide nanoparticles prevent dental caries” (Theranostics, 2022)
